According to patent US5998427A, “Androstenones” (Glaxo Wellcome Inc., priority 1998, dated 1999):
pIC50, pKi: −log10 of the molar value.

Tests used:
[1] = target: T1, human type 1 5α-reductase (Homo sapiens, UniProt P18405); assay: Inhibition of human type 1 5α-reductase (conversion of testosterone to DHT, microsomes of baculovirus infected SF9 cells); format: biochemical; details: pH 7.0, 100 nM testosterone, 10 min preincubation, 10-120 min; read-out: IC50 Human Type 1 5AR
T1 construct: made in house; host or cells: recombinant baculovirus infected SF9 cells (microsomes)
T1 sequence (P18405 1-259): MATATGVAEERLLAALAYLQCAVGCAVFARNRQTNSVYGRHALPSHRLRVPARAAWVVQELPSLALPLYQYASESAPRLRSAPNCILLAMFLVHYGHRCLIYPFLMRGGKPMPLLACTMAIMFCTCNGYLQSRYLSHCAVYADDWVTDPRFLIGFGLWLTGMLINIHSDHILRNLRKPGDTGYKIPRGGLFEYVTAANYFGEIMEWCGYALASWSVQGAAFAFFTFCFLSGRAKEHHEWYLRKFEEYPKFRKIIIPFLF
Protocol: (§1) Enzyme activities may be determined using microsomes derived from: 1) prostate tissue from benign prostatic hyperplasia (BPH) patients; 2) recombinant baculovirus infected SF9 cells that express human type 1 5α-reductase; or 3) recombinant baculovirus infected SF9 cells that express human type 2 5α-reductase. Microsomes were prepared by homogenization of the tissue or cells, followed by differential centrifugation of the homogenate. Microsome extracts were incubated with varying concentrations of [1,2,6,7-^3 H]-testosterone, 1 mM NADPH, and varying amounts of the compounds of formula (I,) i.e. a test compound, in buffer containing a NADPH regenerating system capable of maintaining NADPH concentrations for a period of time within the range 0.5-240 minutes. Corresponding incubations were carried out with no test compound as a control study.
(§2) For type 1 IC50 measurements, assay components except testosterone were preincubated for 10 minutes at pH 7.0, and following the addition of 100 nM testosterone the assays were allowed to proceed for 10-120 minutes. For type 2 IC50 measurements, assay components except testosterone were preincubated for 20 minutes at pH 6.0, and following the addition of 8 nM testosterone the assays were allowed to proceed for 20-40 minutes. […]

Human Adrenal 3BHSD = target: T2, Human Adrenal 3BHSD (Homo sapiens, UniProt P26439); assay: Inhibition of human adrenal 3β-hydroxy-Δ^5-steroid dehydrogenase/3-keto-Δ^5-steroid isomerase (conversion of DHEA to androstenedione, human adrenal microsomes); format: biochemical; details: pH 7.5, DHEA substrate, 1 mM NAD^+, 1 to 60 minutes
T2 construct: microsomes derived from human adrenal tissues; from tissue; host or cells: human adrenal tissue (microsomes)
T2 sequence (P26439 1-372): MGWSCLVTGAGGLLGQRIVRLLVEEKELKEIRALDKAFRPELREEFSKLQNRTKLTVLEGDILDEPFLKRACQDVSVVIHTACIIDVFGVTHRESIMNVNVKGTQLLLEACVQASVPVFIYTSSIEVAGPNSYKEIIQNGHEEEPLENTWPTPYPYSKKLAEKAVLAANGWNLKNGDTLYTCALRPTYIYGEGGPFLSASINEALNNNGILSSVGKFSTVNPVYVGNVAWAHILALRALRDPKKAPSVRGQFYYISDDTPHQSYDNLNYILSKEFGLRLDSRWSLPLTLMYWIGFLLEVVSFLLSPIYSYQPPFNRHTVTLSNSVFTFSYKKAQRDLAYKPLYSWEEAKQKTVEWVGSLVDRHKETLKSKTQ
Protocol: Enzyme activities are measured using microsomes derived from human adrenal tissues. Microsomes were prepared by homogenization of the tissue followed by differential centrifugation of the homogenate. Microsome extracts were incubated with varying concentrations of dehydroepiandrosterone (DHEA), 1 mM NAD^+, and varying amounts of the compounds of Formula (I), i.e. a test compound, in pH 7.5 buffer for a period of time within the range of 1 to 60 minutes. Corresponding incubations were carried out with no test compound as a control study. The percentage of conversion of DHEA to androstenedione in the presence of test compounds compared to the corresponding conversion in the control study was estimated using HPLC with radiochemical detection.

[2] = test system: bovine adrenal 3β-hydroxy-Δ^5 -steroid dehydrogenase/3-keto-Δ^5 -steroid isomerase (3BHSD); details: literature (Tan; Brandt and Levy); cited from earlier work
[3] = test system: porcine granulosa cell 3β-hydroxy-Δ^5 -steroid dehydrogenase/3-keto-Δ^5 -steroid isomerase (3BHSD); details: literature (Tan; Brandt and Levy); cited from earlier work
[4] = literature (McConnell; Rasmusson); cited from earlier work
[5] = target: T3, human type 2 5α-reductase (Homo sapiens, UniProt P31213); assay: Inhibition of human type 2 5α-reductase (conversion of testosterone to DHT, microsomes); format: biochemical; details: pH 6.0, 8 nM testosterone, 20 min preincubation, 20-40 min; read-out: IC50 Human Type 2 5AR
T3 construct: made in house; host or cells: recombinant baculovirus infected SF9 cells (microsomes); prostate tissue of BPH patients is printed as an alternative
T3 sequence (P31213 1-254): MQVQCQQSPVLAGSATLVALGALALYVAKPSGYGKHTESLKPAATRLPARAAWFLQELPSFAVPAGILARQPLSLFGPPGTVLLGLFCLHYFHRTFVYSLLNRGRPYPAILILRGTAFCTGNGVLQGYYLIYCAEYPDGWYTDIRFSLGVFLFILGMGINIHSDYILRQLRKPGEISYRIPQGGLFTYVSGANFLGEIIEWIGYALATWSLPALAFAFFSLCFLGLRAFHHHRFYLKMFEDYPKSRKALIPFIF
Protocol: as §1, §2

SMILES | pKi (Human Adrenal 3BHSD) | other results
C[C@]12C=CC(=O)N[C@@H]1CC[C@@H]1[C@@H]2CC[C@]2(C)[C@@H](C(=O)NC3(c4ccc5c(c4)OCO5)CCCCC3)CC[C@@H]12 [Compound 12, 17β-N-1-(3,4-Methylenedioxyphenyl)cyclohexylcarbamoyl-4-aza-5α-androst-1-en-3-one] | 6.00 to 8.00 | pIC50 [1]: 6.00 to 8.00
CN1C(=O)CC[C@]2(C)[C@H]3CC[C@]4(C)[C@@H](C(=O)Nc5cc(C(F)(F)F)ccc5C(F)(F)F)CC[C@H]4[C@@H]3CC[C@@H]12 [Compound 23, 17β-N-(2,5-bis(Trifluoromethyl))phenylcarbamoyl-4-methyl-4-aza-5α-androstan-3-one] | 6.00 to 8.00 | 
CN1C(=O)CC[C@]2(C)[C@H]3CC[C@]4(C)[C@@H](C(=O)Nc5cc(C(F)(F)F)ccc5C(C)(C)C)CC[C@H]4[C@@H]3CC[C@@H]12 [Compound 26, 17β-N-(2-t-Butyl-5-trifluoromethyl)phenylcarbamoyl-4-methyl-4-aza-5α-androstan-3-one] | 6.00 to 8.00 | 
CN1C(=O)CC[C@]2(C)[C@H]3CC[C@]4(C)[C@@H](C(=O)Nc5cc(C(C)(C)C)ccc5C(C)(C)C)CC[C@H]4[C@@H]3CC[C@@H]12 [Compound 29, 17β-N-(2,5-Di-t-butyl)phenylcarbamoyl-4-methyl-4-aza-5α-androstan-3-one] | 6.00 to 8.00 | 
CN1C(=O)CC[C@]2(C)[C@H]3CC[C@]4(C)[C@@H](C(=O)NC5(c6ccc(Cl)cc6)CCCC5)CC[C@H]4[C@@H]3CC[C@@H]12 [Compound 2, 17β-N-1-(4-Chlorophenyl)cyclopentylcarbamoyl-4-methyl-4-aza-5α-androstan-3-one] | 6.00 to 8.00 | 
CCN(CC)C(=O)[C@H]1CC[C@H]2[C@@H]3CC[C@H]4N(C)C(=O)CC[C@]4(C)[C@H]3CC[C@]12C [Compound 4-MA] |  | inhibition of bovine adrenal 3BHSD [2]: potent inhibition; inhibition of porcine granulosa cell 3BHSD [3]: potent inhibition; hepatotoxicity [4]: hepatotoxicity
CC(C)(C)c1ccc(C(F)(F)F)cc1NC(=O)[C@H]1CC[C@H]2[C@@H]3CC[C@H]4NC(=O)C=C[C@]4(C)[C@H]3CC[C@]12C [Compound 24, 17β-N-(2-t-Butyl-5-trifluoromethyl)phenylcarbamoyl-4-aza-5α-androst-1-en-3-one] |  | pIC50 [5]: 8.00 to 9.00
CC(C)(C)c1ccc(C(C)(C)C)c(NC(=O)[C@H]2CC[C@H]3[C@@H]4CC[C@H]5NC(=O)C=C[C@]5(C)[C@H]4CC[C@]23C)c1 [Compound 27, 17β-N-(2,5-Di-t-butyl)phenylcarbamoyl-4-aza-5α-androst-1-en-3-one] | 6.00 to 8.00 | 
